Data reported in the supplement of paper PMC10307832.

Key:
Assay in all cases: relative viability (nuclei count vs DMSO), 5 days (fraction); higher = more cells survive
[1] = compound: C1=CC2=C(C=C(C(=C2N=C1)O)N=NC3=CC4=C(C=C3)C=C(C=C4)S(=O)(=O)O)S(=O)(=O)O + Cc1nc(Nc2ncc(C(=O)Nc3c(C)cccc3Cl)s2)cc(N2CCN(CCO)CC2)n1 [Dasatinib] (partner 0.075 µM)
Method in brief: (§1)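 Nuclei were stained with Hoechst during a one-step fixation (final 0.05% Triton X-100, 1% formaldehyde, 1 ug/ml Hoechst) carried out 5 days after dosing, then counted on 4× images. The cells, lung cancer lines in 1536-well plates, had been dosed by pin tool the day after seeding with one drug alone or a fixed anchor-drug dose plus five library-drug doses (not always all listed) in √10 steps. Relative viability is the nuclei count in treated wells divided by that in vehicle wells, and each value is the median of duplicate plates.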

AT-7519 + Crizotinib = compound: O=C(NC1CCNCC1)c1n[nH]cc1NC(=O)c1c(Cl)cccc1Cl [AT-7519] + C[C@@H](Oc1cc(-c2cnn(C3CCNCC3)c2)cnc1N)c1c(Cl)ccc(F)c1Cl [Crizotinib] (partner 1 µM)
Method in brief: as §1

AT-7519 + Foretinib = compound: O=C(NC1CCNCC1)c1n[nH]cc1NC(=O)c1c(Cl)cccc1Cl [AT-7519] + COc1cc2c(Oc3ccc(NC(=O)C4(C(=O)Nc5ccc(F)cc5)CC4)cc3F)ccnc2cc1OCCCN1CCOCC1 [Foretinib] (partner 0.25 µM)
Method in brief: as §1

[2] = compound: C1=CC2=C(C=C(C(=C2N=C1)O)N=NC3=CC4=C(C=C3)C=C(C=C4)S(=O)(=O)O)S(=O)(=O)O + Cc1nc(NC(=O)N2CCC[C@H]2C(N)=O)sc1-c1ccnc(C(C)(C)C(F)(F)F)c1 [Alpelisib] (partner 2 µM)
Method in brief: as §1

| Cell Line | relative viability ([1]; first compound 0.08 µM) | relative viability ([1]; first compound 0.253 µM) | relative viability ([1]; first compound 0.8 µM) | relative viability ([1]; first compound 2.53 µM) | relative viability ([1]; first compound 8 µM) | relative viability (AT-7519 + Crizotinib; first compound 0.01 µM) | relative viability (AT-7519 + Crizotinib; first compound 0.03162 µM) | relative viability (AT-7519 + Crizotinib; first compound 0.3162 µM) | relative viability (AT-7519 + Crizotinib; first compound 1 µM) | relative viability (AT-7519 + Foretinib; first compound 0.01 µM) | relative viability (AT-7519 + Foretinib; first compound 0.03162 µM) | relative viability (AT-7519 + Foretinib; first compound 1 µM) | relative viability ([2]; first compound 0.08 µM) | relative viability ([2]; first compound 0.253 µM) | relative viability ([2]; first compound 0.8 µM) | relative viability ([2]; first compound 2.53 µM) | relative viability ([2]; first compound 8 µM) | relative viability (AT-7519 + Foretinib; first compound 0.3162 µM) |
| --- | --- | --- | --- | --- | --- | --- | --- | --- | --- | --- | --- | --- | --- | --- | --- | --- | --- | --- |
| 201T | 0.627 | 0.56 | 0.584 | 0.619 | 0.677 | 1.04 | 1.1 | 1.03 | 1.09 | 1.2 | 1.05 | 0.809 | 1.02 | 0.991 | 0.995 | 1.06 | 1.03 | – |
| A549 | – | – | – | – | – | 0.635 | 0.867 | 0.55 | 0.25 | 0.925 | 0.984 | 0.845 | 0.733 | 0.708 | 0.665 | 0.728 | 0.662 | 0.852 |
| A-427 | 0.68 | 0.634 | 0.64 | 0.775 | 0.751 | 0.931 | 0.823 | 0.964 | 0.576 | 1.16 | 0.968 | 0.384 | 1.19 | 1.07 | 1.09 | 1.08 | 1.17 | 1.06 |
| ABC-1 | 0.568 | – | – | 0.713 | 0.421 | 1.06 | 1.35 | 0.591 | 0.183 | 0.937 | 1.09 | 0.541 | 1.14 | 0.967 | 1.03 | 0.869 | 1.22 | 0.962 |
| BEN | 0.25 | 0.31 | 0.296 | 0.347 | 0.322 | 0.897 | 0.754 | 0.985 | 0.83 | 0.719 | 0.636 | 0.8 | 1.26 | 0.962 | 0.847 | 1.04 | 0.932 | 0.922 |
| CAL-12T | 0.325 | 0.361 | 0.383 | 0.518 | 0.434 | 0.562 | 0.537 | 0.201 | 0.16 | 1.17 | 1.19 | 0.178 | 1.85 | 1.13 | 1.08 | 1.29 | 1.13 | 0.814 |
| COR-L23 | 0.523 | 0.477 | 0.442 | 0.582 | 0.576 | 0.639 | 0.632 | 0.653 | 0.132 | 1.19 | 0.799 | 0.507 | 0.818 | 0.691 | 0.728 | 0.704 | 0.593 | 0.992 |
| COR-L 105 | 0.307 | 0.337 | 0.445 | 0.348 | 0.278 | 0.823 | 0.784 | 0.469 | 0.289 | 1.17 | 1.01 | 0.525 | 1.05 | 1.03 | 1.26 | 0.966 | 1.08 | 1.2 |
| Calu-6 | – | – | – | – | – | 0.928 | 0.855 | 0.677 | 0.141 | 0.903 | 0.917 | 0.641 | 0.942 | 0.965 | 1.1 | 0.988 | 1.04 | 0.865 |
| ChaGo-K-1 | 0.648 | 0.595 | 0.599 | 0.481 | 0.335 | 1.08 | 1.12 | 0.792 | 0.743 | 0.931 | 0.845 | 0.733 | – | – | – | – | – | 0.967 |
| EBC-1 | – | – | – | – | – | 0.198 | 0.228 | 0.191 | 0.153 | 0.101 | 0.106 | 0.0905 | 0.822 | 0.854 | 0.743 | 0.813 | 1.03 | 0.0999 |
| EKVX | 0.314 | 0.648 | 0.556 | 0.743 | 0.633 | 0.933 | 0.85 | 0.699 | 0.894 | 0.75 | 0.902 | 0.773 | 1.01 | 0.849 | 0.793 | 0.85 | 0.903 | 0.996 |
| EMC-BAC-2 | 0.324 | 0.401 | 0.336 | 0.36 | 0.367 | 0.766 | 0.744 | 0.746 | 0.881 | 0.977 | 0.998 | 0.794 | 0.8 | 0.75 | 0.711 | 0.766 | 0.696 | 1.02 |
| EPLC-272H | 0.408 | 0.313 | 0.333 | 0.366 | 0.418 | 0.896 | 0.918 | 0.809 | 0.934 | 0.753 | 0.512 | 0.28 | 0.996 | 0.831 | 0.876 | 0.963 | 0.944 | 0.622 |
| H3255 | 0.346 | 0.375 | 0.297 | 0.34 | 0.477 | 0.942 | 0.838 | 0.849 | 0.756 | 0.901 | 0.876 | 0.794 | 0.82 | 0.698 | 0.717 | 0.775 | 0.712 | 0.906 |
| HARA | 0.284 | 0.274 | 0.274 | 0.296 | 0.327 | 1.03 | 1.1 | 0.974 | 0.786 | 1.07 | 0.638 | 0.591 | 0.907 | 0.873 | 0.791 | 0.894 | 0.845 | 0.906 |
| HCC-15 | 0.684 | 0.551 | 0.609 | 0.584 | 0.624 | 0.864 | 0.718 | 0.741 | 0.502 | 1.11 | 0.941 | 0.403 | 0.97 | 0.811 | 0.807 | 0.895 | 0.938 | 0.914 |
| HCC-44 | – | – | – | – | – | 0.773 | 0.781 | 0.903 | 0.778 | – | – | – | 0.867 | 0.786 | 0.779 | 0.893 | 0.893 | – |
| HCC-78 | 0.404 | 0.337 | 0.426 | 0.352 | 0.394 | 0.33 | 0.324 | 0.331 | 0.42 | 0.564 | 0.563 | 0.575 | 0.406 | 0.325 | 0.319 | 0.345 | 0.266 | 0.597 |
